Assay results as given in ChEMBL document CHEMBL5465560, “Selectivity Literature for EUbOPEN Chemogenomic Library” (2024).

What was measured:
[1] = biological target: Protein arginine N-methyltransferase 1 (Homo sapiens, UniProt Q99873); details: at 1 µM
[2] = test system: Receptor-type tyrosine-protein kinase FLT3 (Homo sapiens), P36888 [UNDEFINED MUTATION]; experiment: Selectivity interaction (KinomeScan (DiscoverX)) EUB0000229b FLT3; details: at 1 µM
[3] = biological target: cGMP-specific 3',5'-cyclic phosphodiesterase (Homo sapiens) (UniProt O76074); experiment: Selectivity interaction (Eurofins safety panel) EUB0001564a PDE5A; details: at 10 µM
[4] = biological target: Interferon-induced, double-stranded RNA-activated protein kinase (Homo sapiens) (UniProt P19525); experiment: Selectivity interaction (ActivX KiNativ screen (kinase selectivity in THP-1 cell lysates)) EUB0000639a EIF2AK2; type: subcellular; details: lysate, at 5 µM
[5] = biological target: 5'-AMP-activated protein kinase catalytic subunit alpha-1 (Homo sapiens, UniProt Q13131); experiment: Selectivity interaction (ActivX KiNativ screen (kinase selectivity in THP-1 cell lysates)) EUB0000639a PRKAA1; type: subcellular; details: lysate, at 0.04 µM
[6] = biological target: Atypical kinase COQ8A, mitochondrial (Homo sapiens, UniProt Q8NI60); experiment: Selectivity interaction (Ambit KINOMEscan and KiNATiv profiling in Jurkat cells) EUB0000090b ADCK3; type: cell-based; details: at 1 µM
[7] = biological target: T1, Ephrin type-B receptor 4 (Homo sapiens) (UniProt P54760); experiment: Selectivity interaction (Ambit KINOMEscan and KiNATiv profiling in Jurkat cells) EUB0000090b EPHB4; type: cell-based; details: at 1 µM
T1 sequence (whole entry): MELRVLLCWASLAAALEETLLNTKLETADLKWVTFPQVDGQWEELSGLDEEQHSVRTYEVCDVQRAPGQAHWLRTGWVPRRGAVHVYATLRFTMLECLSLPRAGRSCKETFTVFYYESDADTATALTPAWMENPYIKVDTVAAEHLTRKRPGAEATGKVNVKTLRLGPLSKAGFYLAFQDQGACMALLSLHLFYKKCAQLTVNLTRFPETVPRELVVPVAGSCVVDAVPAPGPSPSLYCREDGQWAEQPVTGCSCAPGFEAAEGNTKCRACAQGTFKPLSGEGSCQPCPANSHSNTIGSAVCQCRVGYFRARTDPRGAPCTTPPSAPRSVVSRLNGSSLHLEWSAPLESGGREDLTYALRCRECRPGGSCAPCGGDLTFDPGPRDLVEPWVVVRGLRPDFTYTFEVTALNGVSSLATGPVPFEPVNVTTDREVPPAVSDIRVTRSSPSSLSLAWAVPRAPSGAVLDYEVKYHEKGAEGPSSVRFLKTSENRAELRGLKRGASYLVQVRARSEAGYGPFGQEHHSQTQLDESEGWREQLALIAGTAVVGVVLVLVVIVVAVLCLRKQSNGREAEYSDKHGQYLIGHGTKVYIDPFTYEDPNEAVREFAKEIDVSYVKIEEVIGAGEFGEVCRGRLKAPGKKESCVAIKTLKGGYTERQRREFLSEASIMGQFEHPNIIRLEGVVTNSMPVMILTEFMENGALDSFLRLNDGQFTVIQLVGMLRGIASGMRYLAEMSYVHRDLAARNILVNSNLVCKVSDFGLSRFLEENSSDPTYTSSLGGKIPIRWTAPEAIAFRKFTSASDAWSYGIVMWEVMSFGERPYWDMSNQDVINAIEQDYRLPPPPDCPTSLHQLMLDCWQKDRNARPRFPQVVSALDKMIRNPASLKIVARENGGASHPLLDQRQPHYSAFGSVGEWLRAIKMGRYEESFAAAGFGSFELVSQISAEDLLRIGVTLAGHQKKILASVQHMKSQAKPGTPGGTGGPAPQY

[8] = biological target: T2, Interleukin-1 receptor-associated kinase 4 (Homo sapiens) (UniProt Q9NWZ3); experiment: Selectivity interaction (ActivX KiNativ screen (ex vivo kinase selectivity in human PBMCs)) EUB0001619a IRAK4; type: cell-based; details: PBMC, at 1 µM
T2 sequence (whole entry): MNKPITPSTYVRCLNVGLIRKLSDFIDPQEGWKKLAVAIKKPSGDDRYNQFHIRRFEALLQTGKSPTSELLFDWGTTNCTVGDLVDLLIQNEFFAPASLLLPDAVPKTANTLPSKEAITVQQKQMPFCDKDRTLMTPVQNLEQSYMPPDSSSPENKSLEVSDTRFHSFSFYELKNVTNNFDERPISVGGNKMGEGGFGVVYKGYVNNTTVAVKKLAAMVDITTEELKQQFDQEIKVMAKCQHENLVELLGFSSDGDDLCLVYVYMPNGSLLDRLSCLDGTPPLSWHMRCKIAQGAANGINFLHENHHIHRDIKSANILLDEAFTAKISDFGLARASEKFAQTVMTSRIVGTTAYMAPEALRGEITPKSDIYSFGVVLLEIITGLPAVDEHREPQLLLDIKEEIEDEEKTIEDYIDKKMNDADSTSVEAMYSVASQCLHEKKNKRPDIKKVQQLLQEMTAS

[9] = biological target: Cyclin-dependent kinase 2/cyclin E (Homo sapiens) (UniProt P24864+P24941+O96020); experiment: Selectivity interaction (Upstate Kinase Profiler service (Millipore)) EUB0000056c CDK2; type: protein-complex assay; details: at 1 µM
[10] = biological target: MAO-B (MAOB) (Homo sapiens, UniProt P27338); experiment: Selectivity interaction (Panel of kinases, GPCRs, ion channels and transporters (enzymatic assay)) EUB0000223bCl MAOB
Sequence of MAO-B (MAOB) (P27338 whole entry): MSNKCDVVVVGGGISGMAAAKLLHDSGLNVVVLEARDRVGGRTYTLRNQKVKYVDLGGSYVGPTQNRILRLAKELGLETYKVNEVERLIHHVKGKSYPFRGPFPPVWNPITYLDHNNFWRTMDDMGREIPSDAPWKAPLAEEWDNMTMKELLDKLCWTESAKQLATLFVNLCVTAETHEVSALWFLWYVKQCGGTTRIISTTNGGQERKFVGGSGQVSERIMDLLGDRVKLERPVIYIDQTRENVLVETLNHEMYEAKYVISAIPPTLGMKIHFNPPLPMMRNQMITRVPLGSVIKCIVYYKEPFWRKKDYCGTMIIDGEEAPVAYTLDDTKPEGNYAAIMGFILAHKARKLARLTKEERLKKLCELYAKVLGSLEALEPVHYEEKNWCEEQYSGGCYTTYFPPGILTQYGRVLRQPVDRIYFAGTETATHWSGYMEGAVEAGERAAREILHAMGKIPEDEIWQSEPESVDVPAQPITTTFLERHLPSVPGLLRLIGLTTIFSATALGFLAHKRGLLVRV

Sequence of 5'-AMP-activated protein kinase catalytic subunit alpha-1 (Q13131 whole entry, looked up): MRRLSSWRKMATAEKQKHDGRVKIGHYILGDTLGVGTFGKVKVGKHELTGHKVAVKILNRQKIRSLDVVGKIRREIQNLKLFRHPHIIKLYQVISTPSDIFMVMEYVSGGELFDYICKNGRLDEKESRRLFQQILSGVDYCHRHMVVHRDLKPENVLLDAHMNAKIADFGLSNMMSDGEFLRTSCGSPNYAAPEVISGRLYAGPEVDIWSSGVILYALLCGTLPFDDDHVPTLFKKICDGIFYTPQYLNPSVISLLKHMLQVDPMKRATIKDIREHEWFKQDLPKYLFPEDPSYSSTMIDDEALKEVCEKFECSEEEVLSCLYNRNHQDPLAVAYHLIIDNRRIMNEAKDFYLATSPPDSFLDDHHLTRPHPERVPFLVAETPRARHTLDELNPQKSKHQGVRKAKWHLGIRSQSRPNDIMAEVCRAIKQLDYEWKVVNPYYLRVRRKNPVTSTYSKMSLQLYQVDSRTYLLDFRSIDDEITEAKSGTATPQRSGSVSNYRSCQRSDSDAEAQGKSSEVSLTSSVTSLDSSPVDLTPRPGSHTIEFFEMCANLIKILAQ
Sequence of Atypical kinase COQ8A, mitochondrial (Q8NI60 163-647 limits assumed): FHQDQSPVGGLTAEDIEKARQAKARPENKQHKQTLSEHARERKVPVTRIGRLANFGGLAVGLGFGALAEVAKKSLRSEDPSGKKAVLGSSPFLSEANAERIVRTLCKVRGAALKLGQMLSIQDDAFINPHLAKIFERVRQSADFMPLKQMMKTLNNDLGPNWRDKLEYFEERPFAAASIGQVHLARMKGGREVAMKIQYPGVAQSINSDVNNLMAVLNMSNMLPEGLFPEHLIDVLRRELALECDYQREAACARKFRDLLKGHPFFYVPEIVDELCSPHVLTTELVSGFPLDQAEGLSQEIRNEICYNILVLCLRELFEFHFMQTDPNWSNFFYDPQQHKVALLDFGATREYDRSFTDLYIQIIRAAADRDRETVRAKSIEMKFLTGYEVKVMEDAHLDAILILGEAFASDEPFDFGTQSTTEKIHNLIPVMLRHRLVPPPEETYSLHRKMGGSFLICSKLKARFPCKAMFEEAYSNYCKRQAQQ
Sequence of Interferon-induced, double-stranded RNA-activated protein kinase (Homo sapiens) (P19525 whole entry): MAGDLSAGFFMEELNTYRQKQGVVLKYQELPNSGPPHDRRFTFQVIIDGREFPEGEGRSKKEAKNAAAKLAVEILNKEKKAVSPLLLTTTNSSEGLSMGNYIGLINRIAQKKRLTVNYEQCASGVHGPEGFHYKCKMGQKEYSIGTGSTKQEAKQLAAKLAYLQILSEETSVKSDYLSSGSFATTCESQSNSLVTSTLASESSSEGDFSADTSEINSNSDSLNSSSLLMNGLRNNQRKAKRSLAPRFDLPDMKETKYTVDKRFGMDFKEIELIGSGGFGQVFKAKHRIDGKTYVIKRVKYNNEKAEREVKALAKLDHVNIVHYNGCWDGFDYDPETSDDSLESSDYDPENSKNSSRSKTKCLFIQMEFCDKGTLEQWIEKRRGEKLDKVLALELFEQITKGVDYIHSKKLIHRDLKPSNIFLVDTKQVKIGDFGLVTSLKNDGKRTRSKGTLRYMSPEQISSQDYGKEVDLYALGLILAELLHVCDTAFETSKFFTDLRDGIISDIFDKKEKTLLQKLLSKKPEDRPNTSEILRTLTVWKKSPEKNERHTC
Sequence of Protein arginine N-methyltransferase 1 (Q99873 whole entry, looked up): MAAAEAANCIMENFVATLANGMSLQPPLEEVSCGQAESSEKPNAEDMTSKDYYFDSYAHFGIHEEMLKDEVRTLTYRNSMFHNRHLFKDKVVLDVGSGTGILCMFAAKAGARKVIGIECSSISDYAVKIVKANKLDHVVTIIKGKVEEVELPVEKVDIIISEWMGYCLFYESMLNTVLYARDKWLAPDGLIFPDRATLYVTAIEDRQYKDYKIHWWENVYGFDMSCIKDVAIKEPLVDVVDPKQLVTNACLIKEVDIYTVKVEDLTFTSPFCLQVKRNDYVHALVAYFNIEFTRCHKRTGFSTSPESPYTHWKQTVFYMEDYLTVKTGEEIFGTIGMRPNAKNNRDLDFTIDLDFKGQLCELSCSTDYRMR
Sequence of Receptor-type tyrosine-protein kinase FLT3 (Homo sapiens), P36888 [UNDEFINED MUTATION] (P36888 whole entry, looked up, stated change not applied): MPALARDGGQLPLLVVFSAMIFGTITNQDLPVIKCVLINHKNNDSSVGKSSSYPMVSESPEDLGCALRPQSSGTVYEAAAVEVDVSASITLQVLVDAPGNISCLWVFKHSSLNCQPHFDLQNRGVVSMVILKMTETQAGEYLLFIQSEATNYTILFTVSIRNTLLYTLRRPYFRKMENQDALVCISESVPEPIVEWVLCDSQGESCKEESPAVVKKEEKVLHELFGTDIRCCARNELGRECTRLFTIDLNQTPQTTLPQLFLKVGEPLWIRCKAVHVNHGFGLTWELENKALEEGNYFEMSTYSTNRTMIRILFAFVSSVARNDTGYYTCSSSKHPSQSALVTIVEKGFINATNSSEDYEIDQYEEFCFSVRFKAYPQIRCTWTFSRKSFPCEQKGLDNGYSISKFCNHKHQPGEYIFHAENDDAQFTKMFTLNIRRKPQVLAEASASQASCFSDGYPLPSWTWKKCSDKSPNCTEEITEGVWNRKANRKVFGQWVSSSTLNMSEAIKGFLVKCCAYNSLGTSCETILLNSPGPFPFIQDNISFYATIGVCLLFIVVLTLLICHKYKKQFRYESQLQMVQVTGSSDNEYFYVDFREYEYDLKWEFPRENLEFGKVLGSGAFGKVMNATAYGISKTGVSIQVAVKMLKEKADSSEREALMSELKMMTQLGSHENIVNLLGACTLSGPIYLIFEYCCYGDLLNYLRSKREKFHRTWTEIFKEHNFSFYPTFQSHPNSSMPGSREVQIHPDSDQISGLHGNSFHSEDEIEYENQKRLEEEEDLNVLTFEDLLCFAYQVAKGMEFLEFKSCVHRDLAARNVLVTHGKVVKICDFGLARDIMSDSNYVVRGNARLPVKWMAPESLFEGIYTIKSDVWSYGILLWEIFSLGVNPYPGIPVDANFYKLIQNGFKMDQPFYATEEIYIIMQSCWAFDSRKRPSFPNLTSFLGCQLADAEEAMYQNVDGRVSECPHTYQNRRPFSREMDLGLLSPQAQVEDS

Work on `CNCCN1CCC(c2cc(CN(C)C(=O)c3cccc(Oc4ccccc4)c3)ccn2)CC1` yielded a % activity [1] greater than 90%.

`COc1cc(N(C)c2ccnc3ccc(C(F)(F)F)cc23)cc(OC)c1OC` was tested, and the % binding [2] was 100%.

Work on `CC[C@@H](Nc1c(C#N)c(-c2ccc(-c3cccc(C)c3F)cc2)nc2cnccc12)C(=O)O` [BAY-091] yielded a % of inhibition [3] of 62%.

With `CC[C@@H]1[C@H](F)C(=O)N[C@@H]1COc1nccc2cc(C(N)=O)c(OC)cc12` [ZIMLOVISERTIB] the % of inhibition [4] was 0.6% and the % of inhibition [5] was 4.2%.

For `CN(C)C/C=C/C(=O)Nc1ccc(C(=O)N2CCCC(Nc3ncc(Cl)c(-c4c[nH]c5ccccc45)n3)C2)cc1` (stereo not given), the % of control [6] was 90% and the % of control [7] was 94%.

For `N#Cc1cccc(-c2c[nH]c3ncnc(N4CCOCC4)c23)c1`, the % of inhibition [8] was 16%.

`Cc1ccc(-c2ccc3c(ccc4sc5c(c43)NC[C@@H](C)NC5=O)n2)cn1` gave a % of inhibition [9] of 35%.

`COc1cc(C(=O)N2CC[C@@H](O)[C@@H](N)C2)cc2nc(-c3cc4ccccc4n3CC3CC3)n(C)c12` showed an XC50 [10] of 15.8 µM.
